Calls of active or inactive are those of the source. No cut-off for these calls is given here.
Legend:
[1] = Inhibition of cell-mediated LDL oxidation in HMEC1 cells at 10 uM after 6 hrs by TBARS assay; design: scale not given: the % may be the effect or the level left
[2] = Cytotoxicity against HMEC1 cells after 6 hrs by MTT assay; format: cell-based; conditions: human, hmec-1, 6 h
[3] = Antioxidant activity against superoxide radical generation in HMEC1 cells; format: functional, Homo sapiens, HMEC-1
[4] = Inhibition against copper-induced LDL oxidation in cell-free system at 10 uM after 3 hrs by TBARS assay; design: scale not given: the % may be the effect or the level left
[5] = Inhibition against UV-induced LDL oxidation in cell-free system at 10 uM after 2 hrs by TBARS assay; design: scale not given: the % may be the effect or the level left
[6] = Antioxidant activity assessed as trolox equivalents of ABTS radical scavenging activity by TEAC assay; format: functional
[7] = system: Radical scavenging activity; assay: Antioxidant activity assessed as DPPH radical scavenging activity after; format: functional
[8] = system: HMEC-1; assay: Cytoprotective activity against 4HNE-induced cytotoxicity in HMEC1 cells at 25 uM by MTT assay; format: functional, cell-based; conditions: Homo sapiens

SMILES | Activity [1] [%] | Activity [2] [%] | Activity [3] [%] | Activity [4] [%] | Activity [5] [%] | Activity [6] | IC50 [7] [µM] | Activity [8]
Cc1c(C)c2c(c(C)c1O)CCC(C)(C(=O)O)O2 (centres undefined) [TROLOX] | 3 | 57 | 5 | 6 | 18 | – | – | –
COc1cc(/C=N/NC(=O)c2cccnc2)cc(OC)c1O | 5 | 60 | 44 | 77 | 20 | 1.25 | 18 | –
COc1cc(/C=N/Nc2c(Cl)cc(C(F)(F)F)cc2Cl)cc(OC)c1O | 4 | 74 | 42 | 3 | 15 | 0.98 | – | –
COc1cc(/C=N/Nc2nc3ccccc3s2)cc(OC)c1O | 3 | 55 | 56 | 2 | 17 | 0.89 | – | –
COc1cc(/C=N/NC(=O)c2ccncc2)cc(OC)c1O | 7 | 65 | 22 | 85 | 18 | 1.25 | 17 | –
COc1cc(/C=N/NC(=O)c2cc(C)n[nH]2)cc(OC)c1O | 3 | 69 | 50 | 4 | 17 | 1.15 | – | –
COc1cc(/C=N/Nc2ccccc2F)cc(OC)c1O | 13 | 79 | 33 | 4 | 16 | 0.78 | – | –
COc1cc(/C=N/Nc2nncc3ccccc23)cc(OC)c1O.Cl | 4 | 66 | 30 | 5 | 18 | 0.75 | – | –
COc1cc(C(=O)O)cc(OC)c1O | – | – | – | – | – | – | – | inactive
NNC(=O)c1ccncc1 | – | – | – | – | – | – | – | inactive
COc1cc(/C=N/NC(=N)N)cc(OC)c1O.Cl | 10 | 70 | 36 | 6 | 24 | 0.69 | – | –
COc1cc(/C=N/NC(=O)OCc2ccccc2)cc(OC)c1O | 3 | 69 | 50 | 6 | 18 | 1.11 | – | –
COc1cc(/C=N/Nc2ccc(F)cc2)cc(OC)c1O | 5 | 58 | 57 | 6 | 18 | 1.02 | – | –

— ChEMBL document CHEMBL1177867, “Synthesis and antioxidant activity evaluation of a syringic hydrazones family” (Eur J Med Chem, 2010)
